Assays:
Format in all cases: functional
MDA-MB-468 [1] = experiment: Growth inhibition of human MDA-MB-468 cells assessed as cell growth at 10^-8 M after 48 hrs by sulforhodamine B assay; settings: MDA-MB-468, 48 h; for growth at 0.01 µM: read-out: Activity; for CC50: read-out: pLC50 (the source's name) (converted); for TGI: read-out: pTGI (converted)
U-251 = experiment: Growth inhibition of human U251 cells assessed as cell growth at 10^-8 M after 48 hrs by sulforhodamine B assay; settings: U-251, 48 h; for growth at 0.01 µM: read-out: Activity; for TGI: read-out: pTGI (converted)
A498 [2] = experiment: Growth inhibition of human A498 cells after 48 hrs by sulforhodamine B assay; settings: A498, 48 h; for CC50: read-out: LC50 (the source's name)
[3] = Growth inhibition of human UACC62 cells assessed as cell growth at 10^-6 M after 48 hrs by sulforhodamine B assay; settings: UACC-62, 48 h, read-out: Activity
MDA-MB-468 [4] = experiment: Growth inhibition of human MDA-MB-468 cells assessed as cell growth at 10^-7 M after 48 hrs by sulforhodamine B assay; settings: MDA-MB-468, 48 h, read-out: Activity
RPMI-8226 [5] = experiment: Growth inhibition of human RPMI8226 cells after 48 hrs by sulforhodamine B assay; settings: RPMI-8226, 48 h
MDA-MB-231 [6] = experiment: Growth inhibition of human MDA-MB-231 cells assessed as cell growth at 10^-7 M after 48 hrs by sulforhodamine B assay; settings: MDA-MB-231, 48 h, read-out: Activity
[7] = Growth inhibition of human HOP92 cells assessed as cell growth at 10^-8 M after 48 hrs by sulforhodamine B assay; settings: HOP-92, 48 h; for growth at 0.01 µM: read-out: Activity; for TGI: read-out: pTGI (converted)
SK-MEL-2 = experiment: Growth inhibition of human SK-MEL-2 cells assessed as cell growth at 10^-6 M after 48 hrs by sulforhodamine B assay; settings: SK-MEL-2, 48 h, read-out: Activity
COLO 205 = experiment: Induction of apoptosis in human COLO205 cells assessed as late apoptosis cells level at 10 uM after 24 hrs by Annexin V/propidium iodide staining-based fluorescence microscopy
[8] = Growth inhibition of human MOLT4 cells assessed as cell growth at 10^-7 M after 48 hrs by sulforhodamine B assay; settings: MOLT-4, 48 h, read-out: Activity
RPMI-8226 [9] = experiment: Growth inhibition of human RPMI8226 cells assessed as cell growth at 10^-6 M after 48 hrs by sulforhodamine B assay; settings: RPMI-8226, 48 h, read-out: Activity
[10] = Growth inhibition of human SF539 cells assessed as cell growth at 10^-8 M after 48 hrs by sulforhodamine B assay; settings: SF-539, 48 h; for growth at 0.01 µM: read-out: Activity; for TGI: read-out: pTGI (converted)
MDA-MB-231 [11] = experiment: Growth inhibition of human MDA-MB-231 cells after 48 hrs by sulforhodamine B assay; settings: MDA-MB-231, 48 h
IGROV-1 = experiment: Growth inhibition of human IGROV1 cells assessed as cell growth at 10^-7 M after 48 hrs by sulforhodamine B assay; settings: IGROV-1, 48 h, read-out: Activity
SN12C = experiment: Growth inhibition of human SN12C cells assessed as cell growth at 10^-7 M after 48 hrs by sulforhodamine B assay; settings: read-out: Activity
[12] = Growth inhibition of human LOXIMVI cells assessed as cell growth at 10^-4 M after 48 hrs by sulforhodamine B assay; settings: LOX IMVI, read-out: Activity
[13] = Growth inhibition of human SF539 cells assessed as cell growth at 10^-7 M after 48 hrs by sulforhodamine B assay; settings: SF-539, 48 h, read-out: Activity
K562 [14] = experiment: Growth inhibition of human K562 cells after 48 hrs by sulforhodamine B assay; settings: K562, 48 h; for CC50: read-out: LC50 (the source's name)
M14 = experiment: Growth inhibition of human M14 cells assessed as cell growth at 10^-6 M after 48 hrs by sulforhodamine B assay; settings: M14, 48 h, read-out: Activity
[15] = Growth inhibition of human HCC2998 cells assessed as cell growth at 10^-4 M after 48 hrs by sulforhodamine B assay; settings: HCC 2998, 48 h, read-out: Activity
SNB-75 = experiment: Growth inhibition of human SNB75 cells after 48 hrs by sulforhodamine B assay; settings: SNB-75, 48 h; for CC50: read-out: LC50 (the source's name)
[16] = Growth inhibition of human HCC2998 cells assessed as cell growth at 10^-8 M after 48 hrs by sulforhodamine B assay; settings: HCC 2998, 48 h; for growth at 0.01 µM: read-out: Activity; for CC50: read-out: pLC50 (the source's name) (converted); for TGI: read-out: pTGI (converted)
A498 [17] = experiment: Growth inhibition of human A498 cells assessed as cell growth at 10^-4 M after 48 hrs by sulforhodamine B assay; settings: A498, 48 h, read-out: Activity
T47D = experiment: Growth inhibition of human T47D cells assessed as cell growth at 10^-6 M after 48 hrs by sulforhodamine B assay; settings: read-out: Activity
[18] = Growth inhibition of human SF295 cells assessed as cell growth at 10^-4 M after 48 hrs by sulforhodamine B assay; settings: SF-295, 48 h, read-out: Activity
SR = experiment: Growth inhibition of human SR cells assessed as cell growth at 10^-6 M after 48 hrs by sulforhodamine B assay; settings: read-out: Activity
K562 [19] = experiment: Growth inhibition of human K562 cells assessed as cell growth at 10^-4 M after 48 hrs by sulforhodamine B assay; settings: K562, 48 h, read-out: Activity
HT-29 = experiment: Growth inhibition of human HT-29 cells assessed as cell growth at 10^-7 M after 48 hrs by sulforhodamine B assay; settings: HT-29, 48 h, read-out: Activity
[20] = Growth inhibition of human MOLT4 cells after 48 hrs by sulforhodamine B assay; settings: MOLT-4, 48 h; for CC50: read-out: LC50 (the source's name)
[21] = Growth inhibition of human OVCAR5 cells assessed as cell growth at 10^-7 M after 48 hrs by sulforhodamine B assay; settings: OVCAR-5, 48 h, read-out: Activity
CCRF-CEM = experiment: Growth inhibition of human CCRF-CEM cells assessed as cell growth at 10^-8 M after 48 hrs by sulforhodamine B assay; settings: for growth at 0.01 µM: read-out: Activity; for CC50: read-out: pLC50 (the source's name) (converted); for TGI: read-out: pTGI (converted)
[22] = Growth inhibition of human UACC62 cells assessed as cell growth at 10^-4 M after 48 hrs by sulforhodamine B assay; settings: UACC-62, 48 h, read-out: Activity

`Cc1ccc(S(=O)(=O)N2C/C(=C\c3cc(F)cc(F)c3)C(=O)/C(=C/c3cc(F)cc(F)c3)C2)cc1` showed a GI50 (MDA-MB-468 [1]) of 347 nM, a growth at 0.01 µM (MDA-MB-468 [1]) of 90% and a CC50 (MDA-MB-468 [1]) of 5750 nM. The TGI (MDA-MB-468 [1]) was 1700 nM, the GI50 (U-251) was 186 nM and the LC50 (U-251) was 2040 nM. It also gave a growth at 0.01 µM (U-251) of 94%, a TGI (U-251) of 525 nM and a GI50 (A498 [2]) of 1880 nM. The TGI (A498 [2]) was 4050 nM, the CC50 (A498 [2]) was 8760 nM and the growth at 1 µM [3] was -38%. It also gave a growth at 0.1 µM (MDA-MB-468 [4]) of 83%, a GI50 (RPMI-8226 [5]) of 37.2 nM and an LC50 (RPMI-8226 [5]) of 93800 nM. The TGI (RPMI-8226 [5]) was 331 nM, the growth at 0.1 µM (MDA-MB-231 [6]) was 97% and the GI50 [7] was 1120 nM. For the same molecule, the LC50 [7] was 9770 nM, the growth at 0.01 µM [7] was 72% and the TGI [7] was 3310 nM. For the same molecule, the growth at 1 µM (SK-MEL-2) was 89%, the Activity (COLO 205) was 43% and the growth at 0.1 µM [8] was 88%. It also gave a growth at 1 µM (RPMI-8226 [9]) of -16%, a GI50 [10] of 1200 nM and an LC50 [10] of 6760 nM. The growth at 0.01 µM [10] was 94%, the TGI [10] was 2880 nM and the GI50 (MDA-MB-231 [11]) was 270 nM. It also gave a TGI (MDA-MB-231 [11]) of 784 nM, a CC50 (MDA-MB-231 [11]; read-out: LC50 (the source's name)) of 8480 nM and a growth at 0.1 µM (IGROV-1) of 106%. For the same molecule, the growth at 0.1 µM (SN12C) was 94%, the growth at 100 µM [12] was -98% and the growth at 0.1 µM [13] was 93%. For the same molecule, the GI50 (K562 [14]) was 77.2 nM, the TGI (K562 [14]) was 1370 nM and the CC50 (K562 [14]) was > 100000 nM. For the same molecule, the growth at 1 µM (M14) was 12%, the growth at 100 µM [15] was -95% and the GI50 (SNB-75) was 1990 nM. It also gave a TGI (SNB-75) of 5900 nM, a CC50 (SNB-75) of 26200 nM and a GI50 [16] of 603 nM. The growth at 0.01 µM [16] was 102%, the CC50 [16] was 4900 nM and the TGI [16] was 1910 nM. It also gave a growth at 100 µM (A498 [17]) of -86%, a growth at 1 µM (T47D) of 74% and a growth at 100 µM [18] of -75%. The growth at 1 µM (SR) was -20%, the growth at 100 µM (K562 [19]) was -41% and the growth at 0.1 µM (HT-29) was 91%. The GI50 [20] was 299 nM, the TGI [20] was 2110 nM and the CC50 [20] was > 100000 nM. It also gave a growth at 0.1 µM [21] of 93%, a GI50 (CCRF-CEM) of 74.1 nM and a growth at 0.01 µM (CCRF-CEM) of 95%. For the same molecule, the CC50 (CCRF-CEM) was > 100000 nM, the TGI (CCRF-CEM) was 955 nM and the growth at 100 µM [22] was -98%.

With `O=C1/C(=C/c2ccc(Cl)cc2Cl)CN(S(=O)(=O)c2ccccc2)C/C1=C\c1ccc(Cl)cc1Cl` the GI50 (MDA-MB-468 [1]) was 1120 nM, the growth at 0.01 µM (MDA-MB-468 [1]) was 90% and the CC50 (MDA-MB-468 [1]) was > 100000 nM. It also gave a TGI (MDA-MB-468 [1]) of 3890 nM, a GI50 (U-251) of 174 nM and an LC50 (U-251) of 813 nM. For the same molecule, the growth at 0.01 µM (U-251) was 96%, the TGI (U-251) was 372 nM and the GI50 (A498 [2]) was 727 nM. For the same molecule, the TGI (A498 [2]) was 4390 nM, the CC50 (A498 [2]) was > 100000 nM and the growth at 1 µM [3] was 45%. For the same molecule, the growth at 0.1 µM (MDA-MB-468 [4]) was 94%, the GI50 (RPMI-8226 [5]) was 225 nM and the LC50 (RPMI-8226 [5]) was > 100000 nM. It also gave a TGI (RPMI-8226 [5]) of 605 nM, a growth at 0.1 µM (MDA-MB-231 [6]) of 99% and a GI50 [7] of 1700 nM. For the same molecule, the LC50 [7] was > 100000 nM, the growth at 0.01 µM [7] was 81% and the TGI [7] was 5500 nM. For the same molecule, the growth at 1 µM (SK-MEL-2) was 98%, the Activity (COLO 205) was 18% and the growth at 0.1 µM [8] was 106%. For the same molecule, the growth at 1 µM (RPMI-8226 [9]) was -25%, the GI50 [10] was 427 nM and the LC50 [10] was > 100000 nM. For the same molecule, the growth at 0.01 µM [10] was 98%, the TGI [10] was 2090 nM and the GI50 (MDA-MB-231 [11]) was 466 nM. For the same molecule, the TGI (MDA-MB-231 [11]) was 2160 nM, the growth at 0.1 µM (IGROV-1) was 130% and the growth at 0.1 µM (SN12C) was 92%. The growth at 100 µM [12] was -48%, the growth at 0.1 µM [13] was 97% and the GI50 (K562 [14]) was 346 nM. For the same molecule, the TGI (K562 [14]) was > 100000 nM, the CC50 (K562 [14]) was > 100000 nM and the growth at 1 µM (M14) was 93%. The growth at 100 µM [15] was -66%, the GI50 (SNB-75) was 432 nM and the TGI (SNB-75) was 7290 nM. The CC50 (SNB-75) was > 100000 nM, the GI50 [16] was 380 nM and the growth at 0.01 µM [16] was 102%. It also gave a CC50 [16] of 4570 nM, a TGI [16] of 1350 nM and a growth at 100 µM (A498 [17]) of -8%. For the same molecule, the growth at 1 µM (T47D) was 55%, the growth at 100 µM [18] was -11% and the growth at 1 µM (SR) was -5%. The growth at 100 µM (K562 [19]) was 3%, the growth at 0.1 µM (HT-29) was 101% and the GI50 [20] was 594 nM. For the same molecule, the TGI [20] was 9050 nM, the CC50 [20] was > 100000 nM and the growth at 0.1 µM [21] was 94%. The GI50 (CCRF-CEM) was 288 nM, the growth at 0.01 µM (CCRF-CEM) was 98% and the CC50 (CCRF-CEM) was > 100000 nM. It also gave a TGI (CCRF-CEM) of 1000 nM and a growth at 100 µM [22] of -71%.
